The values below come from US20210290597A1, “METHOD OF TREATING A CONDITION ASSOCIATED WITH NEURODEGENERATION USING INHIBITORS OF OAT3” (Neuropore Therapies, Inc., priority 2018, published 2021).

In general, inhibition refers to the relative decrease from the control value, in per cent. Usually IC50 stands for the concentration that gives 50% inhibition.

The structures appear in SMILES notation. Like-named read-outs stand apart in the source and are kept apart here.

One data set has as its target T1, OAT3 (Homo sapiens, UniProt Q8TCC7).
T1 construct: expressed in transfected cells; host or cells: MDCK-II
T1 sequence (Q8TCC7 1-542): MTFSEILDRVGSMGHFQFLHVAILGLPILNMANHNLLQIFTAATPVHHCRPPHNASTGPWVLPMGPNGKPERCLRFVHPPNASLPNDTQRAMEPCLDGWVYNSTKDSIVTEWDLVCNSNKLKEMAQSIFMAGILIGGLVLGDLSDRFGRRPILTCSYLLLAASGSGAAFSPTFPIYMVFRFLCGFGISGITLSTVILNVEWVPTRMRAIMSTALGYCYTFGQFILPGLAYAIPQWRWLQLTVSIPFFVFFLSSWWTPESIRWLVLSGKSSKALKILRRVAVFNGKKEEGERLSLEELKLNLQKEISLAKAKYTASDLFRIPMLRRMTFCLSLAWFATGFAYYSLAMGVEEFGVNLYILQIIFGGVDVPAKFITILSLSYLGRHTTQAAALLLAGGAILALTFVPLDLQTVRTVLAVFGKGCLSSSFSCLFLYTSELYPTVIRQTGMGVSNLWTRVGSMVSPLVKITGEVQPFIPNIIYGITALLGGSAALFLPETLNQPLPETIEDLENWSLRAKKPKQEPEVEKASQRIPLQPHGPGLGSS
Kind of data set: Further OAT3 uptake inhibition assay (Table 2). Format: cell-based. To be noted: human, MDCK-II cells expressing human OAT3, probe 10 μM PAH (p-aminohippurate); compound 1 μM; PAH 10 μM; mean and SD of triplicate. The method, then: (§1) In a further assay, the effects of several other compounds (including compounds 2, 3, and 4) were assessed against OAT3. The assay was carried out using a similar procedure as described above, using para-aminohippurate (PAH) and estrone-3-sulfate (E3S) as the substrates for measuring OAT3-mediated transport. […] MDCK-II cells were grown in 96-well cell culture plates, and the cell plates are maintained at 37° C. in 5% CO2 atmosphere prior to initiation of the transport experiment. MDCK-II cells were maintained in DMEM with low glucose and 10% FBS. Cells passages up to 40 are seeded at 60K±10K cells/well on 96-well, transwell membrane plates approximately 24 hours before transfection. Transport assays were carried out approximately 48 hours after transfection. Radio-labeled para-aminohippurate ([3H]-PAH) and estrone-3-sulfate (E3S) were used as substrates for measuring OAT3-mediated transport, where the transport of the substrate was determined by radiometric detection. Probenecid was used as a reference inhibitor. Transport study samples were run in triplicate.
(§2) For uptake assays, the net transporter-mediated uptake rate (V) of the substrate by each SLC transporter was calculated as follows:
(§3) Transporter-mediated uptake rate(pmol/min/cm^2)=((Cellular accumulation in cells expressing the transporter)−(Mean cellular accumulation in control cells))/Incubation time.
(§4) Percent inhibition was calculated by dividing the transporter-mediated uptake rate in presence of the test article or the reference inhibitor by the transporter-mediated uptake rate in presence of vehicle control:
(§5) Percent inhibition=100−(100×(transporter-mediated uptake rate)with inhibitor/(transporter-mediated uptake rate)vehicle control)
(§6) For uptake assays, statistical analyses using an unpaired t test was performed between transporter-mediated uptake rate or ATP-dependent transport rate of probe substrate with vehicle control and the inhibitor. A p value of <0.05 was considered statistically significant.
(§7) Table 2 summarizes the inhibitory activity of these compounds against OAT3 in the uptake of probe substrate PAH (p-aminohippurate) or E3S (estrone-3-sulfate). The percent inhibition values were determined by testing compounds at a single concentration of 1 μM with a PAH concentration of 10 μM. Data represent the mean and standard deviation of triplicate samples. The IC50 values were calculated by means of a concentration response curve with a compound concentration range of 0.03-10 μM and a probe substrate concentration of 10 μM PAH or 0.1 μM E3S. The percent inhibition at the various concentrations was run in triplicate and the IC50 value was determined by non-linear regression using GraphPad Prism.

Another data set deals with T2, human transporter OAT3 (Homo sapiens, UniProt Q8TCC7).
T2 construct: expressed in transfected cells; host or cells: MDCK-II
T2 sequence (Q8TCC7 1-542): T1 sequence (Q8TCC7 1-542)
Put plainly: Further OAT3 uptake inhibition assay (Table 2). Format: cell-based. To be noted: compound 0.03-10 μM. Here is the method:
as §1, §2, §3, §4, §5, §6, §7

Setting [1] is: 0.1 μM E3S, read-out: OAT3 inhibition substrate = E3S (IC50).
Setting [2] is: 10 μM PAH, read-out: OAT3 inhibition substrate = PAH (IC50).

As to `O=S(=O)(c1ccc(-n2cn[nH]c2=S)c(N2CCOCC2)c1)c1ccc(Cl)c(C(F)(F)F)c1` [Compound 2, 4-(4-((4-chloro-3-(trifluoromethyl)phenyl)sulfonyl)-2-morpholinophenyl)-2,4-dihydro-3H-1,2,4-triazole-3-thione], at OAT3, the inhibition at 1 μM was found to be 48%. The IC50 at human transporter OAT3 (setting [1]) is 1.9 µM; at human transporter OAT3 (setting [2]) it was 1.36 µM.

Consider `O=S(=O)(c1ccccc1)c1ccc(-n2cn[nH]c2=S)cc1` [Compound 3, 4-(4-(phenylsulfonyl)phenyl)-2,4-dihydro-3H-1,2,4-triazole-3-thione], for which the inhibition at 1 μM against OAT3 came out at 33.1%.

In the case of `O=S(=O)(c1ccc(Cl)cc1)c1ccc(-n2cn[nH]c2=S)cc1` [Compound 4, 4-(4-((4-chlorophenyl)sulfonyl)phenyl)-2,4-dihydro-3H-1,2,4-triazole-3-thione], the inhibition at 1 μM at OAT3 is 76.3%.

With `Cc1cc(S(=O)(=O)c2ccc(-n3cn[nH]c3=S)cc2)ccc1Cl` [Compound 5, 4-(4-((4-chloro-3-methylphenyl)sulfonyl)phenyl)-2,4-dihydro-3H-1,2,4-triazole-3-thione], the inhibition at 1 μM at OAT3 worked out at 86.5%.

With `O=S(=O)(c1ccc(-n2cn[nH]c2=S)cc1)c1cccc(C(F)(F)F)c1` [Compound 11, 4-(4-((3-(trifluoromethyl)phenyl)sulfonyl)phenyl)-2,4-dihydro-3H-1,2,4-triazole-3-thione], the inhibition at 1 μM on OAT3 came out at 58.6%.

With `COc1cccc(S(=O)(=O)c2ccc(-n3cn[nH]c3=S)cc2)c1` [Compound 12, 4-(4-((3-methoxyphenyl)sulfonyl)phenyl)-2,4-dihydro-3H-1,2,4-triazole-3-thione], on OAT3, the inhibition at 1 μM turned out to be 48.4%.

As to `CN(C)c1cccc(S(=O)(=O)c2ccc(-n3cn[nH]c3=S)cc2)c1` [Compound 15, 4-(4-((3-(dimethylamino)phenyl)sulfonyl)phenyl)-2,4-dihydro-3H-1,2,4-triazole-3-thione], the inhibition at 1 μM against OAT3 stood at 60.1%.

Take `O=S(=O)(c1ccc(-n2cn[nH]c2=S)c(N2CCCCC2)c1)c1ccc(Cl)c(C(F)(F)F)c1` [Compound 19, 4-(4-((4-chloro-3-(trifluoromethyl)phenyl)sulfonyl)-2-(piperidin-1-yl)phenyl)-2,4-dihydro-3H-1,2,4-triazole-3-thione]: the inhibition at 1 μM against OAT3 was 43%.

Consider `CN1CCN(c2cc(S(=O)(=O)c3ccc(Cl)c(C(F)(F)F)c3)ccc2-n2cn[nH]c2=S)CC1` [Compound 20, 4-(4-((4-chloro-3-(trifluoromethyl)phenyl)sulfonyl)-2-(4-methylpiperazin-1-yl)phenyl)-2,4-dihydro-3H-1,2,4-triazole-3-thione], for which, on OAT3, the inhibition at 1 μM was found to be 17.2%.

As for `CCN(CC)c1cc(S(=O)(=O)c2ccc(Cl)c(C(F)(F)F)c2)ccc1-n1cn[nH]c1=S` [Compound 21, 4-(4-((4-chloro-3-(trifluoromethyl)phenyl)sulfonyl)-2-(diethylamino)phenyl)-2,4-dihydro-3H-1,2,4-triazole-3-thione], at OAT3, the inhibition at 1 μM worked out at 48.2%.

`CCOCCOc1cc(S(=O)(=O)c2ccc(Cl)c(C(F)(F)F)c2)ccc1-n1cn[nH]c1=S` [Compound 22, 4-(4-((4-chloro-3-(trifluoromethyl)phenyl)sulfonyl)-2-(2-ethoxyethoxy)phenyl)-2,4-dihydro-3H-1,2,4-triazole-3-thione]: on OAT3, the inhibition at 1 μM is 79.5%.

In the case of `CSc1nncn1-c1ccc(S(=O)(=O)c2ccc(Cl)c(C(F)(F)F)c2)cc1` [Compound 26, 4-(4-((4-chloro-3-(trifluoromethyl)phenyl)sulfonyl)phenyl)-3-(methylthio)-4H-1,2,4-triazole], the inhibition at 1 μM against OAT3 was found to be 9.78%. Besides, the IC50 at human transporter OAT3 (setting [1]) worked out at 8.63 µM; on human transporter OAT3 (setting [2]), 7.67 µM.

For `FC(F)(F)c1cc(Oc2ccc(-n3cn[nH]c3=S)cc2)ccc1Cl` [Compound 30, 4-(4-(4-chloro-3-(trifluoromethyl)phenoxy)phenyl)-2,4-dihydro-3H-1,2,4-triazole-3-thione], the inhibition at 1 μM against OAT3 was determined as 86.3%.

For the compound `O=S(=O)(c1ccc(-n2cc[nH]c2=S)cc1)c1ccc(Cl)c(C(F)(F)F)c1` [Compound 31, 1-(4-(4-chloro-3-(trifluoromethyl)phenylsulfonyl)phenyl)-1H-imidazole-2(3H)-thione], the inhibition at 1 μM against OAT3 is -1.05%.

Turning to `O=c1[nH]ccn1-c1ccc(S(=O)(=O)c2ccc(Cl)c(C(F)(F)F)c2)cc1` [Compound 32, 1-(4-((4-chloro-3-(trifluoromethyl)phenyl)sulfonyl)phenyl)-1,3-dihydro-2H-imidazol-2-one], the inhibition at 1 μM against OAT3 was -9.18%.

On to `O=S(=O)(Nc1ccc(Cl)c(C(F)(F)F)c1)c1ccc(-n2cn[nH]c2=S)cc1` [Compound 33, N-(4-chloro-3-(trifluoromethyl)phenyl)-4-(5-thioxo-1H-1,2,4-triazol-4(5H)-yl)benzenesulfonamide], for which the inhibition at 1 μM at OAT3 was 94.1%.

In the case of `CS(=O)(=O)N1CCN(Cc2nnc(Nc3ccc(S(=O)(=O)c4ccc(Cl)cc4)cc3)s2)CC1` [Compound X1], the 50% inhibitory concentration (IC50) on human transporter OAT3 (setting [1]) and at human transporter OAT3 (setting [2]) was over 30 µM throughout.

As for `Nc1ncc(-c2cc(N3CCOCC3)cc(S(=O)(=O)c3ccccc3)c2)cn1` [Compound X2], the half-inhibitory concentration (IC50) at human transporter OAT3 (setting [1]) and on human transporter OAT3 (setting [2]) was over 30 µM throughout.
